Earlier results, collected in PMC11876601 (Molecular Systems Biology, 2025).

Columns and labels:
[1] = system: TBKBP1; design: method as in Klaeger et al. (2017); details: lysate 4 cell line mix (Colo205, K-562, MV-4-11, and SK-N-BE(2)), Kinobeads y, ref Klaeger et al. (2017); cited from earlier work
[2] = system: STK4; design: method as in Klaeger et al. (2017); details: STK4, 4 cell line mix lysate, Kinobeads y, ref Klaeger et al. (2017); cited from earlier work
[3] = system: TBK1; design: method as in Klaeger et al. (2017); details: lysate 4 cell line mix (Colo205, K-562, MV-4-11, and SK-N-BE(2)), Kinobeads y, ref Klaeger et al. (2017); cited from earlier work
[4] = system: PRKX; design: method as in Klaeger et al. (2017); details: lysate 4 cell line mix (Colo205, K-562, MV-4-11, and SK-N-BE(2)), Kinobeads y, ref Klaeger et al. (2017); cited from earlier work
[5] = system: CAMKK2; design: method as in Klaeger et al. (2017); details: lysate 4 cell line mix (Colo205, K-562, MV-4-11, and SK-N-BE(2)), Kinobeads y, ref Klaeger et al. (2017); cited from earlier work
[6] = system: GAK; design: method as in Klaeger et al. (2017); details: lysate 4 cell line mix (Colo205, K-562, MV-4-11, and SK-N-BE(2)), Kinobeads y, ref Klaeger et al. (2017); cited from earlier work
[7] = system: FGFR1; design: method as in Reinecke et al. (2023); details: FGFR1, 5 cell line mix lysate, Kinobeads ε, ref Reinecke et al. (2023), cited from earlier work
[8] = target: BTK; design: method as in Reinecke et al. (2023); details: 5 cell line mix lysate, Kinobeads ε, ref Reinecke et al. (2023), cited from earlier work
[9] = system: NUAK2; design: method as in Reinecke et al. (2023); details: NUAK2, 5 cell line mix lysate, Kinobeads ε, ref Reinecke et al. (2023), cited from earlier work
[10] = system: SIK3; design: method as in Reinecke et al. (2023); details: SIK3, 5 cell line mix lysate, Kinobeads ε, ref Reinecke et al. (2023), cited from earlier work
[11] = system: PRKAA2; design: method as in Reinecke et al. (2023); details: PRKAA2, 5 cell line mix lysate, Kinobeads ε, ref Reinecke et al. (2023), cited from earlier work
[12] = system: ULK1; design: method as in Reinecke et al. (2023); details: ULK1, 5 cell line mix lysate, Kinobeads ε, ref Reinecke et al. (2023), cited from earlier work
[13] = system: NUAK1; design: method as in Reinecke et al. (2023); details: NUAK1, 5 cell line mix lysate, Kinobeads ε, ref Reinecke et al. (2023); cited from earlier work
[14] = system: MAP4K3; design: method as in Reinecke et al. (2023); details: MAP4K3, 5 cell line mix lysate, Kinobeads ε, ref Reinecke et al. (2023), cited from earlier work
[15] = system: WEE1; details: WEE1, 5 cell line mix lysate, Kinobeads ε, ref Reinecke et al. (2023), cited from earlier work
[16] = system: MAPK8; design: method as in Reinecke et al. (2023); details: MAPK8, 5 cell line mix lysate, Kinobeads ε, ref Reinecke et al. (2023), cited from earlier work

## C[C@]12O[C@H](C[C@]1(O)CO)n1c3ccccc3c3c4c(c5c6ccccc6n2c5c31)CNC4=O [Lestaurtinib]
[1]
  EC50: 1.01 µM
[2]
  EC50: 0.0594 µM
[3]
  EC50: […]
[4]
  EC50: […]
[5]
  EC50: […]
[6]
  EC50: […]

## COc1cc(N2CCC(N3CCN(C)CC3)CC2)ccc1Nc1ncc(Cl)c(Nc2ccccc2P(C)(C)=O)n1 [Brigatinib]
[7]
  EC50: 0.419 µM
  pKDapp: 6.51
[7]; read-out: KDapp
  Kd: 0.308 µM
[8]; read-out: KDapp
  Kd: 1.48 µM
[8]
  EC50: 3.78 µM
  pKDapp: 5.83
[9]
  EC50: 0.0885 µM
  pKDapp: 7.17
[9]; read-out: KDapp
  Kd: 0.0683 µM
[10]
  EC50: 1.77 µM
  pKDapp: 5.84
[10]; read-out: KDapp
  Kd: 1.45 µM
[11]
  EC50: 1.16 µM
  pKDapp: 6.28
[11]; read-out: KDapp
  Kd: 0.527 µM
[12]
  EC50: 0.0567 µM
  pKDapp: 7.42
[12]; read-out: KDapp
  Kd: 0.0379 µM
[13]
  EC50: 0.532 µM
[14]
  EC50: 1.16 µM
  pKDapp: 6.12
[14]; read-out: KDapp
  Kd: 0.759 µM
[15]
  EC50: 1.95 µM
  pKDapp: 5.91
[15]; read-out: KDapp
  Kd: 1.24 µM
[16]
  EC50: 2.2 µM
  pKDapp: 5.85
[16]; read-out: KDapp
  Kd: 1.42 µM
